# From patent publication US11512280B2, “Method for culturing spore-forming bacteria, and method for producing useful substance” (priority 2016, dated 2022)
# Experiments:
# Assay type in all cases: cell-based
# [1] = system: Bacillus subtilis MBI-600 strain; test: Surfactin production by Bacillus subtilis, HPLC of culture supernatant (Example 4)
# Protocol: Using a 500 ml Erlenmeyer flask (with baffles), each 100 ml of media listed in Table 5 was prepared and then autoclave sterilization was carried out. Note that glucose was separately sterilized and aseptically mixed in order to avoid Maillard reaction.
# (§1) According to the conditions of each test section, the filter-sterilized aqueous solution of each sporulation-inhibiting substance was added aseptically to each medium. According to the conditions of each test section, one loopful of Bacillus subtilis MBI-600 strain was taken from a colony grown on a nutrient agar medium, inoculated, and then cultured with shaking at 30° C. and 150 rpm.
# Fifty (50) hours after the start of culture, culture was stopped.
# Each of the obtained cultured liquid was centrifuged using a refrigerated centrifuge (TOMY SEIKO Co., Ltd. MX-307) at 10,000 rpm and 20° C. for 30 minutes, thereby collecting a supernatant.
# To a solid-phase extraction column (Nihon Waters K.K. Oasis HLB 3 cc (400 mg) LP Extraction Cartridge), 3 ml of 0.1% TFA-containing acetonitrile was added and allowed to pass therethrough, and then 3 ml of 0.1% TFA-containing distilled water was added to pass through the column. Two ml of the thus collected centrifugal supernatant of each culture medium was added to pass through the column, 6 ml of 0.1% TFA-containing distilled water, and then 3 ml of 0.1% TFA-containing acetonitrile/distilled water (20:80, v/v) were allowed to pass through the column in sequence for washing. Next, 3 ml of 0.1% TFA-containing acetonitrile/distilled water (90:10, v/v) was allowed to pass through the column, thereby collecting an eluate. 0.1% TFA-containing acetonitrile/distilled water (90:10, v/v) was added, so that the amount of the collected solution was 4 ml, and then HPLC analysis was conducted under the following conditions.
# HPLC: Agilent Technologies, Inc. 1260 Infinity […]
# Each medium was compared with the authentic sample in terms of peak area detected at the elution time of 27.6 minutes and that of 28.4 minutes, thereby calculating the surfactin concentration in the culture medium.
# [2] = system: Bacillus subtilis MBI-600 strain; test: Culture of Bacillus subtilis in Table 5 medium with sporulation-inhibiting substance, 50 hours, cell and spore counts (Example 4); details: for Bacterial cell concentration: carbon content 18.2 g/L
# Protocol: Using a 500 ml Erlenmeyer flask (with baffles), each 100 ml of media listed in Table 5 was prepared and then autoclave sterilization was carried out. Note that glucose was separately sterilized and aseptically mixed in order to avoid Maillard reaction. According to the conditions of each test section, the filter-sterilized aqueous solution of each sporulation-inhibiting substance was added aseptically to each medium. According to the conditions of each test section, one loopful of Bacillus subtilis MBI-600 strain was taken from a colony grown on a nutrient agar medium, inoculated, and then cultured with shaking at 30° C. and 150 rpm. Fifty (50) hours after the start of culture, culture was stopped.
# [3] = system: Bacillus subtilis MBI-600; test: Culture of Bacillus subtilis with sporulation-inhibiting substance, 64 hours (Example 1)
# Protocol: Using a 500 ml Erlenmeyer flask (with baffles), each 100 ml of media listed in Table 1 was prepared and then autoclave sterilization was carried out. Glucose was separately sterilized and aseptically mixed in order to avoid Maillard reaction.
# as §1, with “One” for “According to the conditions of each test section, one”, “MBI-600” for “MBI-600 strain”, “rpm for 64 hours.” for “rpm.”
# (§2) Each of the thus obtained culture liquid was diluted 10-fold with sterile water, and then the bacterial cell concentration (vegetative cells and spores) and the sporulation rate (spore concentration/bacterial cell concentration) were measured using an optical microscope and a bacterial cell counter.
# [4] = system: Bacillus thuringiensis NBRC 101235 strain; test: Culture of Bacillus thuringiensis with sporulation-inhibiting substance, 40 hours (Example 3); details: for Bacterial cell concentration / Spore concentration / Sporulation rate: 40 hours culture
# Protocol: Using a 500 ml Erlenmeyer flask (with baffles), each 100 ml of media listed in Table 1 was prepared and then autoclave sterilization was carried out. Note that glucose was separately sterilized and aseptically mixed in order to avoid Maillard reaction.
# as §1, with “thuringiensis NBRC 101235” for “subtilis MBI-600”, “rpm for 40 hours.” for “rpm.”
# as §2
# [5] = 0.1 ppm added, 64 hours culture
# [6] = 1.0 ppm added, 64 hours culture
smiles,measurement,setting,value
CC[C@H]1OC(=O)[C@H](C)[C@@H](O[C@H]2C[C@@](C)(OC)[C@@H](O)[C@H](C)O2)[C@H](C)[C@@H](O[C@@H]2O[C@H](C)C[C@H](N(C)C)[C@H]2O)[C@](C)(O)C[C@@H](C)C(=O)[C@H](C)[C@@H](O)[C@]1(C)O [Erythromycin],Surfactin concentration,[1]; 0.1 ppm and 0.2 ppm,tended to increase
same,Surfactin concentration,"[1]; 0.1 ppm, 50 hours culture, in the culture medium",58.5 ppm
same,Surfactin concentration,"[1]; 0.2 ppm, 50 hours culture, in the culture medium",75.7 ppm
same,Spore concentration,[2]; 0.1 ppm and 0.2 ppm,tended to increase
same,Spore concentration,"[2]; 0.1 ppm, 50 hours culture",8e+09 mL⁻¹
same,Sporulation rate,"[2]; 0.1 ppm, 50 hours culture",99%
same,Bacterial cell concentration,"[2]; 0.1 ppm, 50 hours culture",8.1e+09 mL⁻¹
same,Spore concentration,"[2]; 0.2 ppm, 50 hours culture",6.9e+09 mL⁻¹
same,Sporulation rate,"[2]; 0.2 ppm, 50 hours culture",100%
same,Bacterial cell concentration,"[2]; 0.2 ppm, 50 hours culture",6.9e+09 mL⁻¹
same,effect of inhibiting sporulation,[3]; 0.1 ppm,not observed
same,Spore concentration,[3]; [5],2.8e+09 mL⁻¹
same,Sporulation rate,[3]; [5],80%
same,Bacterial cell concentration,"[3]; 0.1 ppm added, 64 hours culture, carbon content 9.1 g/L",3.5e+09 mL⁻¹
same,effect of inhibiting sporulation,[3]; 1 ppm,observed
same,Bacterial cell concentration,[3]; [6],6.2e+09 mL⁻¹
same,Sporulation rate,[3]; [6],0%
same,bacterial cell concentrations as the concentration of the substance increased,[3]; trend over tested concentrations,tended to increase
same,bacterial cell concentration and spore concentration,[4]; 0.05 ppm,tended to increase
same,Bacterial cell concentration,[4]; 0.05 ppm,1.5e+09 mL⁻¹
same,Spore concentration,[4]; 0.05 ppm,1.1e+09 mL⁻¹
same,Sporulation rate,[4]; 0.05 ppm,73%
same,effect of inhibiting sporulation,[4]; 0.1 ppm,confirmed
same,Bacterial cell concentration,[4]; 0.1 ppm,2e+09 mL⁻¹
same,Spore concentration,[4]; 0.1 ppm,3e+08 mL⁻¹
same,Sporulation rate,[4]; 0.1 ppm,16%
